Consider 2 molecules from patent US12601743B2, “Methods for treating drug resistant cancers” (The Regents of the University of California, priority 2017, dated 2026).

Entries after “also recorded” stand apart in the source; their conditions may differ.

In assay [1] the test system is YAP/TAZ expression in GBM cells. Kind of assay: YAP/TAZ expression after PAK4 inhibition (immunoblot). Format: cell-based, human. Particulars: FIG. 3H, FIG. 14C; U87MG, LN229. The protocol:
Chemicals. Verteporfin (YAP inhibitor) was purchased from Sigma and used at the concentration of 0.5-10 μM for 24 hours. PF-03758309 (PAK4 inhibitor) was purchased from Chemietek and used at the concentration of 50 nM-1000 nM for 24 hours.
Immunoblotting. Proteins were extracted in RIPA buffer and quantified using the Pierce BCA kit (Thermo Fisher). 10-30 μg of protein was boiled in NuPage buffer (Thermo Fisher) and loaded onto a denaturing SDS-polyacrylamide gel (10%), transferred to PVDF membranes and blotted with anti-mouse or -rabbit HRP-conjugated secondary antibodies (Bio-Rad). The following antibodies were used for immunoblotting: β3 (Cell Signaling), Glut3 (Santa Cruz Biotechnology), YAP (Santa Cruz) YAP-XP (cell signaling), TAZ (Cell Signaling), PAK4 and pPAK4 (Cell Signaling), and Vinculin and β-actin (Sigma-Aldrich) as loading controls.
In general terms: Immunoblotting shows a protein as a band on a membrane.

The subject of another assay is Ge479 orthotopic tumors. Kind of assay: Orthotopic brain tumor xenograft survival, Ge479. Format: in vivo, mice. The settings on record: Ge479 (Glut3 addicted); systemic treatment; FIG. 21. The protocol:
Orthotopic brain tumor xenografts. Intracranial transplantation of U87MG or GSC (Ge518 and Ge479) into 6-8-week-old nu/nu nude immunocompromised mice (Charles River Labs) was performed in accordance with the UCSD Institutional Animal Care and Use Committee. U87MG cells bearing β3, Glut3 shRNA or shβ3 ectopically expressing Glut3 as well as shRNA control (15 mice per group) were orthotopically transplanted following washing and resuspension in PBS. Ge479 and Ge518 were orthotopically transplanted following washing and resuspension in DMEM/F12. Mice were treated with vehicle (PBS) or cilengitide (10 mg kg 1 or 30 mg kg 1; 8 mice per group) five days per week. Briefly, with a stereotaxic frame (Stoelting Co.), a small burr hole was made in the skull 2 mm anterior and 2 mm lateral to the bregma. A 31-gauge Hamilton needle/syringe was inserted 3 mm, and 0.25 μl/minute was dispensed (10^5 tumor cells in 2 μl media). A total of 1×10^5 and 3×10^5 cells in 2 μl was injected respectively for U87MG cells and GSCs respectively.

For the next assay, the system named is GBM150 and GBM59 GSCs. Kind of assay: GSC cell viability (CELLTITER-GLO), Mayo Clinic models with Glut3 non-addicted signature. The settings on record: mesenchymal, FIG. 17B. Format: cell-based, human. The method, then:
(§1) Cell viability assay. U87MG, LN229, and LN18 cells were seeded at 1K cells per well in black 96-well plates in DMEM medium (no glucose) with 10% dialyzed FBS±glucose (0-4.5 g/L). Cell viability was determined by Alamar Blue dye (Life Technologies) according to manufacturer's instructions. For GSCs, cells were seeded at 10K cells per well in white 96-well low attachment plates in GSC medium±glucose (0-4.5 g/L). Viable cell numbers were evaluated using a CELLTITER-GLO™ assay kit (Promega). Each condition consisted of, at least, three replicate wells and data were expressed as relative luciferase units or as the percentage of survival of control cells.
On the technique in general: ATP-based viability assays read luminescence as a measure of living cells.

The test system of assay [2] is GBM14, GBM64 and GBM85 GSCs. Kind of assay: GSC cell viability (CELLTITER-GLO), Mayo Clinic models predicted Glut3 addicted. The settings on record: Classical or Proneural, Glut3 addicted signature, FIG. 17B. Format: cell-based, human. The protocol:
as §1

Assay [3] has as its system Ge738, GBM6, Ge970.2 and Ge885 GSCs. Kind of assay: GSC cell viability (CELLTITER-GLO), GSC with low β3/Glut3 expression. Format: cell-based, human. The settings on record: GSC with low β3/Glut3 expression (Ge738, GBM6, Ge970.2, Ge885); FIG. 5D, 5H. The protocol: as §1
The test system of a further assay is glioblastoma. The settings on record: GBM patients; phase III CENTRIC, phase II CORE (Stupp et al., 2014); cited from earlier work.
The subject of the next assay is GBM26 and GBM12 GSCs. Kind of assay: GSC cell viability (CELLTITER-GLO), Mayo Clinic β3/Glut3-low models. Format: cell-based, human. The settings on record: FIG. 17A-B. The method, then:
as §1

Turning to `Cc1nc(Nc2n[nH]c3c2CN(C(=O)N[C@H](CN(C)C)c2ccccc2)C3(C)C)c2sccc2n1` [PF-03758309], the YAP/TAZ expression entry in assay [1] is recorded as “decrease of YAP/TAZ expression”.
For `CC(C)[C@H]1C(=O)N[C@@H](CCCN=C(N)N)C(=O)NCC(=O)N[C@@H](CC(=O)O)C(=O)N[C@H](Cc2ccccc2)C(=O)N1C` [cilengitide, 2-[(2S,5R,8S,11S)-5-benzyl-11-{3-[(diaminomethylidene)amino]propyl}-7-methyl-3,6,9,12,15-pentaoxo-8-(propan-2-yl)-1,4,7,10,13-pentaazacyclopentadecan-2-yl]acetic acid], the “survival of mice bearing orthotopic tumors” value in the assay on Ge479 orthotopic tumors is on record as “dramatically prolongs the survival”. Besides, the “sensitivity (cell viability)” value in the assay with GBM150 and GBM59 GSCs is listed as “largely resistant; also recorded: not affected”; in assay [2], “largely sensitive; also recorded: sensitivity to integrin blockade”. Further, the “effect on cell viability” value in assay [3] is “moderate enhancement of viability”; in the assay with GBM26 and GBM12 GSCs it was “no effect or a moderate enhancement of viability”. Besides, in the assay with glioblastoma, the “overall survival in clinical trials” value is given as “failed to meet overall survival endpoints; also recorded: failed to produce a significant overall survival benefit”.
